Test results as given in PMC10799292, “The Role of β-Defensin 1 Against Porphyromonas gingivalis Lipopolysaccharide-Mediated Inflammation in the THP-1 Cell Line” (Cureus, 2023).
No end group written: not given here.

What was measured:
[1] = tested on: THP-1 differentiated macrophage cell line; test: Cytotoxicity evaluation of Pg-LPS by MTT method; type: cell-based, human; conditions: 24 h, 0.25-4 µg/mL
Experimental: The THP-1 cell line was cultured in DMEM and supplemented with 10% FBS, sodium bicarbonate, L-glutamine, and an antibiotic solution containing penicillin (100 U/mL), amphotericin B (2.5 µg/mL), and streptomycin (100 µg/mL). The cells were maintained in a 5% humidified CO2 incubator (NBS Eppendorf, Germany) at 37°C. To induce differentiation into macrophages, the THP-1 cell line was treated with 25 ng/mL phorbol 12-myristate 13-acetate (PMA) (cat. 91585, Sigma-Aldrich, USA) and incubated for 48 hours. Following incubation, the cells were seeded in a 96-well culture plate at a density of 5x10^4 cells/well and incubated for 24 hours in a humidified 5% CO2 incubator at 37°C.
After incubation of 24 hours, triplicate additions of Pg-LPS in various concentrations (0.25 µg, 0.5 µg, 1 µg, 2 µg, and 4 µg/mL) were done appropriately. […] The inhibitory concentration (IC50) value of Pg-LPS was determined by the ED50 software.
Inverted phase contrast microscopy (IPCM) using an Olympus CKX41 microscope (Olympus, Japan) equipped with an Optika Pro5 CCD camera (Optika, Italy) was utilized to directly observe the cells. Cell viability was determined using the MTT (3-(4,5-Dimethylthiazol-2-yl)-2,5-diphenyltetrazolium bromide) assay (Sigma, M-5655). […] The absorbance of this colored solution can be quantified by measuring at approximately 570 nm using a spectrophotometer. […]

THP-1 cells [2] = test: Intracellular ROS generation, DCFDA assay; type: cell-based, human; conditions: Pg-LPS 1 µg/mL alone; DCFDA 30 min, ex 470 nm, em 635 nm; untreated control 2379
Experimental: Untreated control and Pg-LPS treated wells were also maintained. The cells were washed with PBS, and 50 µl of Dichlorodihydrofluorescein diacetate (DCFDA) was added, followed by incubation for 30 minutes. After incubation, excess dye was removed with PBS, and fluorescence was observed using a fluorescent microscope (Olympus CKX41 with Optika Pro5 CCD camera) and quantified with a fluorimeter at 470 nm excitation and emission at […] (Qubit 3.0, Life Technologies, USA), displaying the results in arbitrary units (AU).
The effect of β-defensin 1 on ROS generation in THP-1 cells stimulated with Pg-LPS was studied. DCFDA, a fluorogenic dye, measures hydroxyl, peroxyl, and other ROS activities within the cell. After entering the cell, DCFDA is deacetylated by cellular esterases into a non-fluorescent compound. This nonfluorescent chemical is then oxidized by ROS into […] (DCF), which, upon excitation with a blue filter, emits green fluorescence. When THP-1 cells were stimulated with Pg-LPS, there was a considerable increase in fluorescence, which decreased upon treatment with β-defensin 1, as shown in Figure 7 and Table 2.

THP-1 cells [3] = test: Cell cycle distribution by flow cytometry; type: cell-based, human; conditions: Pg-LPS alone, compared to untreated control cells
Experimental: Untreated control and Pg-LPS stimulated cells were also maintained. The MUSE Cell Cycle Kit was added, and the manufacturer's instructions were followed.

THP-1 cells [4] = test: Apoptosis by flow cytometry (Annexin V & Dead Cell); type: cell-based, human; conditions: Pg-LPS 1 µg/mL alone
Experimental: Untreated control and Pg-LPS treated wells were also maintained. To the tubes, 100 μL of the Muse™ Annexin V & Dead Cell Reagents were added separately. The tubes were completely mixed by pipetting up and down or spinning at a medium speed for three to five seconds, followed by 20 minutes of incubation in the dark at room temperature. The cells were examined with a Flow Cytometer, gated against untreated control cells, and evaluated for apoptosis with the Muse FCS 3.0 software.
The Muse Annexin V & Dead Cell Kit is a method to analyze cells in various stages of apoptosis, where fluorescently labeled Annexin V binds to phosphatidylserine (PS), which translocates to the outer surface of the cell membrane upon the onset of apoptosis. 7-AAD is excluded from live and healthy cells and permeates late-stage apoptotic and dead cells. […] The result is depicted in Figure 9.

phagocytosis = conditions: via its effect on the cytoskeletal network; cited from earlier work
Source text: Two important functions of macrophages are to eliminate pathogens through phagocytosis and apoptosis of inflammatory cells and their subsequent clearance (efferocytosis). The present study analyzed the role of AMP, β-defensin 1, in Pg-LPS-stimulated THP-1 differentiated macrophage cells.

RAW264.7 cells = conditions: stimulated with LPS; cited from earlier work
Source text: (§1) One of the primary virulence factors of periodontitis, Pg-LPS, targets TLR4, which activates the NF-kB signaling pathway and triggers the secretion of inflammatory cytokines such as TNFα, IL-6, and chemokines, recruiting monocytes/macrophages to the site of infection. […] Cecropin A, a novel 37-residue cecropin-like antimicrobial ...

[5] = directly interacting with LPS; cited from earlier work
Source text: as §1

endothelial cells = conditions: cited from earlier work
Source text: as §1

## Porphyromonas gingivalis lipopolysaccharide [Pg-LPS]
[1]
  cytotoxicity (in words): dose-dependent cytotoxicity
THP-1 cells [2]
  ROS generation, Fluorescence intensity: 10743.55 AU
THP-1 cells [3]
  G0/G1 phase of the cell cycle (in words): increase in the G0/G1 phase of the cell cycle
THP-1 cells [4]; untreated control 87.25%
  live cells: 74.40%
THP-1 cells [4]; untreated control Dead 3.65 %
  necrotic effect / Dead: 22.85%
phagocytosis
  effect on phagocytosis: suppresses phagocytosis

## Cecropin A: a novel 37-residue cecropin-like antimicrobial peptide isolated from a cecropia moth (KWKLFKKIEKVGQNIRDGIIKAGPAVAVVGQATQIAK; ends and bridges not checked; UniProt P01507 27-63, looked up)
RAW264.7 cells
  anti-inflammatory activities: showed anti-inflammatory activities

## cathelicidin
[5]
  LPS-neutralizing effect: potent LPS-neutralizing effect
Endothelial cells
  LPS-induced apoptosis: reducing LPS-induced apoptosis in endothelial cells
